Where “and” joins values, the source holds several entries; their conditions need not be identical. Equal values may be shown once.
System: 855422-203-R-J1-PDC spheroids with HUVEC/MSC, viability
Test: Anticancer human tumor 855422-203-R-J1-PDC patient-derived bladder carcinoma cell line growth inhibition [PI3K]
Conditions: for viability, T/C: stronger effect = lower value; active means viability on the fitted dose curve at most 10% of control; inactive means the rest
Text: Combinatorial screen of targeted agents with the PI3K inhibitors inavolisib, alpelisib, duvelisib, and copanlisib in multi-cell type tumor spheroids
A high-throughput screen of multi-cell type tumor spheroids was designed to identify active combinations of targeted small molecules and PI3K pathway inhibitors. Complex spheroids include a stromal component modeled by human endothelial cells (HUVEC) and fibroblasts modeled by human mesenchymal stem cells (MSCs). The concentration ranges selected for each drug and investigational agent were based upon clinically achievable concentrations if the clinical Cmax of the agent was known.
Compounds. The drugs and investigational agents: inavolisib (NSC800729), alpelisib (NSC765974), duvelisib (NSC772469), copanlisib (NSC816437), ipatasertib (NSC767898), afuresertib (NSC778305), talazoparib (NSC767125), sapanisertib (NSC764658), selumetinib (NSC741078), tovorafenib (DAY101, NSC766906), vemurafenib (NSC761431), ravoxertinib (NSC781343), sotorasib (NSC818433), MRTX1133 (NSC 836407), abemaciclib (NSC 768073), palbociclib (NSC758247), venetoclax (NSC 766270), SY5609 (NSC837396), enzalutamide (NSC755605), and darolutamide (NSC825331), were obtained from the National Cancer Institute (NCI) Developmental Therapeutics Program Chemical Repository. The FDA-approved anticancer drug set is available from the NCI Developmental Therapeutics Program. […] The stock solutions were prepared in dimethyl sulfoxide (DMSO, Sigma-Aldrich, St. Louis, MO, cat. D2650) at 800-fold the tested concentration and stored at -70 degrees C prior to their use. All drugs and investigational agents were tested over a range starting from a high concentration at or near the clinical Cmax and decreasing in half-log increments. If the clinical Cmax for an agent had not been determined, the highest concentration tested was 10 microM.
Cell Culture. All cells were maintained in an incubator at 37 degrees C and 5% CO2 with 95% humidity. The PDC lines were cultured according to standard operating procedures established by the NCI PDMR (https://pdmr.cancer.gov/sops/default.htm). All PDCs were thawed and cultured in Matrigel-coated flasks prepared with a working solution of 1X Ham's F-12 nutrient mix, without supplementation (Invitrogen, Waltham, MA, cat. 11765054), 100 U/mL penicillin-streptomycin (Invitrogen, cat. 15140122), and 2.5% Matrigel (Corning Inc., Corning, NY, cat. 354248) for the first three passages. The 354836-022-R-J1-PDC, 475296-252-R-J1-PDC, and 997726-040-R-J2-PDC lines were cultured in 6A media, which includes advanced DMEM/F-12 (Thermo Fisher Scientific, cat. 12634028), 10 mM HEPES (Thermo Fisher Scientific, cat. 15630080), 1X GlutaMAX supplement (Thermo Fisher Scientific, cat. 35050061), 0.1 mg/mL primocin (InvivoGen, San Diego, CA, cat. ant-pm-2), 10% defined fetal bovine serum, heat inactivated (HyClone Laboratories Inc., Logan, UT, cat. SH30070.03HI), 50% L-WRN conditioned media (ATCC, cat. CRL-3276), 1.25 mM N-Acetyl-L-cysteine (Sigma-Aldrich, cat. A9165), 10 mM nicotinamide (Sigma-Aldrich, cat. N0636), 1X B-27 supplement (Thermo Fisher Scientific, cat. 17504044), 1X N-2 supplement (Thermo Fisher Scientific, cat. 17502048), and 10 microM Y-27632 dihydrochloride (Tocris Bioscience, Bristol, United Kingdom, cat. 1254). The 624824-186-R-J2-PDC line was cultured in 6C/Colon 1B media, which includes all 6A media components plus 50 ng/mL human EGF recombinant protein (Thermo Fisher Scientific, cat. PHG0311). […]

[1] = curve of first compound, second compound 0.0316 µM
[2] = curve of first compound, second compound 0.1 µM
[3] = curve of first compound, second compound 0.316 µM
[4] = curve of first compound, second compound 1 µM
[5] = second compound 0.0316 µM, first compound 0.0316 µM
[6] = second compound 0.0316 µM, first compound 0.1 µM
[7] = second compound 0.0316 µM, first compound 0.316 µM
[8] = second compound 0.0316 µM, first compound 1 µM
[9] = second compound 0.0316 µM, first compound 3.16 µM
[10] = second compound 0.0316 µM, first compound 10 µM
[11] = second compound 0.1 µM, first compound 0.0316 µM
[12] = second compound 0.1 µM, first compound 0.1 µM
[13] = second compound 0.1 µM, first compound 0.316 µM
[14] = second compound 0.1 µM, first compound 1 µM
[15] = second compound 0.1 µM, first compound 3.16 µM
[16] = second compound 0.1 µM, first compound 10 µM
[17] = second compound 0.316 µM, first compound 0.0316 µM
[18] = second compound 0.316 µM, first compound 0.1 µM
[19] = second compound 0.316 µM, first compound 0.316 µM
[20] = second compound 0.316 µM, first compound 1 µM
[21] = second compound 0.316 µM, first compound 3.16 µM
[22] = second compound 0.316 µM, first compound 10 µM
[23] = second compound 1 µM, first compound 0.0316 µM
[24] = second compound 1 µM, first compound 0.1 µM
[25] = second compound 1 µM, first compound 0.316 µM
[26] = second compound 1 µM, first compound 1 µM
[27] = second compound 1 µM, first compound 3.16 µM
[28] = second compound 1 µM, first compound 10 µM
[29] = curve of first compound, second compound 0.00316 µM
[30] = curve of first compound, second compound 0.01 µM
[31] = second compound 0.00316 µM, first compound 0.0316 µM
[32] = second compound 0.00316 µM, first compound 0.1 µM
[33] = second compound 0.00316 µM, first compound 0.316 µM
[34] = second compound 0.00316 µM, first compound 1 µM
[35] = second compound 0.01 µM, first compound 0.0316 µM
[36] = second compound 0.01 µM, first compound 0.1 µM
[37] = second compound 0.01 µM, first compound 0.316 µM
[38] = second compound 0.01 µM, first compound 1 µM
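Further: agents incubated with spheroids for one week before read-out.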
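Wherever viability, T/C is given: 100% = DMSO vehicle-treated control wells.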

CC(Cn1ccc(-c2ccc(C#N)c(Cl)c2)n1)NC(=O)c1cc(C(C)O)[nH]n1 (configuration not stated) + CC(Nc1ncnc2nc[nH]c12)c1cc2cccc(Cl)c2c(=O)n1-c1ccccc1
inactive: viability, T/C [5] 105% | viability, T/C [6] 93.3% | viability, T/C [7] 113% | viability, T/C [8] 98.3% | viability, T/C [9] 91.6% | viability, T/C [10] 67.8% | viability, T/C [11] 105% | viability, T/C [12] 107% | viability, T/C [13] 106% | viability, T/C [14] 105% | viability, T/C [15] 90.3% | viability, T/C [16] 82.8% | viability, T/C [17] 97% | viability, T/C [18] 104% | viability, T/C [19] 96.6% | viability, T/C [20] 112% | viability, T/C [21] 89.9% | viability, T/C [22] 77.4% | viability, T/C [23] 92.9% | viability, T/C [24] 108% | viability, T/C [25] 107% | viability, T/C [26] 103% | viability, T/C [27] 95.5% | viability, T/C [28] 95.7% | viability, T/C (second compound 3.16 µM, first compound 0.0316 µM) 97.3% | viability, T/C (second compound 3.16 µM, first compound 0.1 µM) 91.1% | viability, T/C (second compound 3.16 µM, first compound 0.316 µM) 108% | viability, T/C (second compound 3.16 µM, first compound 1 µM) 101% | viability, T/C (second compound 3.16 µM, first compound 3.16 µM) 90.4% | viability, T/C (second compound 3.16 µM, first compound 10 µM) 78.7% | viability, T/C (second compound 10 µM, first compound 0.0316 µM) 88.5% | viability, T/C (second compound 10 µM, first compound 0.1 µM) 84.9% | viability, T/C (second compound 10 µM, first compound 0.316 µM) 89.5% | viability, T/C (second compound 10 µM, first compound 1 µM) 82.3% | viability, T/C (second compound 10 µM, first compound 3.16 µM) 74.5% | viability, T/C (second compound 10 µM, first compound 10 µM) 70%
> 10 µM: IC50 [1] | IC50 [2] | IC50 [3] | IC50 [4] | IC50 (curve of first compound, second compound 3.16 µM) | IC50 (curve of first compound, second compound 10 µM)

CCCS(=O)(=O)Nc1ccc(F)c(C(=O)c2c[nH]c3ncc(-c4ccc(Cl)cc4)cc23)c1F
inactive: viability, T/C (compound 0.1 µM) 96.7% [middle of 4 runs] | viability, T/C (compound 0.316 µM) 108% (2×) and 99.2% and 92.2% | viability, T/C (compound 1 µM) 87.6% [middle of 4 runs] | viability, T/C (compound 3.16 µM) 65.7% [middle of 4 runs]
active: viability, T/C (compound 10 µM) 0.53% [middle of 4 runs]
4.16 µM [middle of 4 runs]: IC50 (curve of compound)

CCN1CCN(Cc2ccc(Nc3ncc(F)c(-c4cc(F)c5nc(C)n(C(C)C)c5c4)n3)nc2)CC1 + CC(Nc1ccc2c(c1)OCCn1cc(N3C(=O)OCC3C(F)F)nc1-2)C(N)=O
0.277 µM: IC50 [1]
0.791 µM: IC50 [30]
0.0707 µM: IC50 [2]
0.00429 µM: IC50 [3]
< 0.00316 µM: IC50 [4]
inactive: viability, T/C (second compound 0.00316 µM, first compound 0.00316 µM) 111% | viability, T/C (second compound 0.00316 µM, first compound 0.01 µM) 74.3% | viability, T/C [31] 103% | viability, T/C [32] 74.1% | viability, T/C [33] 66.2% | viability, T/C [34] 56.5% | viability, T/C (second compound 0.01 µM, first compound 0.00316 µM) 102% | viability, T/C (second compound 0.01 µM, first compound 0.01 µM) 80% | viability, T/C [35] 89.7% | viability, T/C [36] 76% | viability, T/C [37] 56.7% | viability, T/C [38] 48.3% | viability, T/C (second compound 0.0316 µM, first compound 0.00316 µM) 69.1% | viability, T/C (second compound 0.0316 µM, first compound 0.01 µM) 78.3% | viability, T/C [5] 78.3% | viability, T/C [6] 61.7% | viability, T/C [7] 49.7% | viability, T/C [8] 35.4% | viability, T/C (second compound 0.1 µM, first compound 0.00316 µM) 66% | viability, T/C (second compound 0.1 µM, first compound 0.01 µM) 66.2% | viability, T/C [11] 59.1% | viability, T/C [12] 46.3% | viability, T/C [13] 28.3% | viability, T/C [14] 21% | viability, T/C (second compound 0.316 µM, first compound 0.00316 µM) 46.5% | viability, T/C (second compound 0.316 µM, first compound 0.01 µM) 52% | viability, T/C [17] 43.1% | viability, T/C [18] 24.4% | viability, T/C [19] 16.4% | viability, T/C [20] 16.1% | viability, T/C (second compound 1 µM, first compound 0.00316 µM) 33% | viability, T/C (second compound 1 µM, first compound 0.01 µM) 40.3% | viability, T/C [23] 21.9% | viability, T/C [24] 14.2% | viability, T/C [25] 12.3% | viability, T/C [26] 13.1%
> 1 µM: IC50 [29]

Cn1nccc1Nc1nccc(-c2ccn(C(CO)c3ccc(Cl)c(F)c3)c(=O)c2)n1 (configuration not stated) + CC(Nc1ccc2c(c1)OCCn1cc(N3C(=O)OCC3C(F)F)nc1-2)C(N)=O
5.55 µM: IC50 [1]
active: viability, T/C [28] 8.01%
6.7 µM: IC50 [30]
inactive: viability, T/C [31] 103% | viability, T/C [32] 84.7% | viability, T/C [33] 95.7% | viability, T/C [34] 89.7% | viability, T/C (second compound 0.00316 µM, first compound 3.16 µM) 80.7% | viability, T/C (second compound 0.00316 µM, first compound 10 µM) 38.3% | viability, T/C [35] 98.4% | viability, T/C [36] 96.2% | viability, T/C [37] 93.5% | viability, T/C [38] 82.8% | viability, T/C (second compound 0.01 µM, first compound 3.16 µM) 76% | viability, T/C (second compound 0.01 µM, first compound 10 µM) 37% | viability, T/C [5] 62.7% | viability, T/C [6] 82.1% | viability, T/C [7] 89.7% | viability, T/C [8] 82.8% | viability, T/C [9] 70.1% | viability, T/C [10] 29.1% | viability, T/C [11] 72.4% | viability, T/C [12] 79.4% | viability, T/C [13] 79.1% | viability, T/C [14] 64.7% | viability, T/C [15] 56.8% | viability, T/C [16] 20.2% | viability, T/C [17] 53.6% | viability, T/C [18] 52.5% | viability, T/C [19] 51.8% | viability, T/C [20] 49.5% | viability, T/C [21] 29.3% | viability, T/C [22] 10.6% | viability, T/C [23] 35.9% | viability, T/C [24] 32.2% | viability, T/C [25] 29.9% | viability, T/C [26] 26.4% | viability, T/C [27] 17.3%
7.22 µM: IC50 [29]
< 0.0316 µM: IC50 [4]
3.78 µM: IC50 [2]
0.796 µM: IC50 [3]
